{"source": "patent US20060123501A1", "about": "“Method for treating inflammatory disorders” (priority 2004, published 2006)", "key": {"[1]": {"tested_on": "xiap, ciap1 and ciap2 mRNA", "test": "iap mRNA levels of LPS-treated peritoneal macrophages (quantitative RT-PCR)", "type": "cell-based, mouse", "experimental": "The iap mRNA levels of LPS-treated peritoneal macrophages derived from wild type C57Bl/6 mice relative to untreated controls were assayed. (A) xiap, ciap1, and ciap2 message levels of macrophages exposed to a range of LPS doses relative to untreated controls. (B) ciap2 mRNA message of macrophages exposed to LPS was assayed over 24 h. Results are mean±s.d. (n=5, average of triplicate wells per mouse, P<0.05).\nLPS-induced activation of macrophages causes the upregulation of a multitude of genes, including the production/release of inflammatory mediators, the upregulation of cell surface receptors and of cell survival proteins. […] Therefore, the iap mRNA levels of LPS-treated macrophages, derived from the peritoneal cavity, were assayed relative to untreated controls. Peritoneal macrophages were cultured at 10^5 cell/well (96 well, flat bottom plate) and exposed to varying concentrations of LPS for 18 hours. […] In contrast, ciap2 levels increased dramatically, up to 30 fold above untreated controls (P<0.01 for all LPS doses) (FIG. 2A). The innate immune system provides protection within the first minutes to hours after a pathogenic challenge.\nmRNA was extracted from mouse embryonic fibroblasts or peritoneal macrophages using Qiagen Rneasy 96 wells extraction kit (Qiagen, Mississauga, ON, Canada) and run on a TaqMan® instrument (Perkin-Elmer, Foster City, Calif.) using specific DNA probes for murine xiap, ciap1 and 2 and the TaqMan® EZ RT-PCR kit (Qiagen, Mississauga, ON, Canada)."}, "splenic B cells": {"tested_on": "splenic B cells", "test": "Proliferation of splenic B cells cultured with LPS", "type": "cell-based, mouse", "conditions": "cIAP2−/− splenic B cells; LPS 0.1 to 100 μg/ml", "experimental": "Spleen- and peritoneal-derived macrophage cell count numbers are shown (A) for cIAP2^−/−, cIAP2^+/− and cIAP2^+/+ mice (n=10). Both cIAP2^−/− and littermate control-derived macrophages stained for the LPS binding surface receptor CD14 (B). The proliferation of B cells for cIAP2^−/− mice and littermate controls of cIAP2^+/+ after culturing with the indicated range of LPS doses (n=6) (C). Cultured macrophages from cIAP2^−/− or littermate control cIAP2^+/+ mice were exposed to LPS for 10 h and subsequently IL-1β (D) or TNF-α (E) levels were measured by ELISA (n=6). Additionally, macrophages were exposed to the indicated range of LPS doses for 24 h and IL-1β (F) or TNF-α (G) levels were determined (n=6). Results are mean±s.d. in triplicate per mouse, P<0.01\nThis dysfunction may be correlated to a reduced initial number of macrophages, to a block in the LPS-induced signaling pathway, or to an increased apoptotic susceptibility of the cIAP2^−/− macrophages. […] The cIAP2^−/− mice and wild-type macrophages also stained similarly for the LPS-binding receptor, CD14 (FIG. 4B)."}, "[2]": {"tested_on": "cIAP2−/− mice and littermate controls", "conditions": "for LD100: i.p.", "experimental": "Mice were injected IP with a range of indicated LPS doses (n=15).\nSchoemaker et al. proposed an important role of cIAP2 in LPS-induced death of liver cells sensitized to endotoxic shock by D-galactosamine (DGLN) (22). […] Thus to investigate the role of cIAP2 in an innate immune response, the cIAP2^−/− mice were treated with LPS.\nAdult 4-6 week old mice (n=6 to 10) were injected intraperitoneally (i.p.) with a range of LPS doses (10 to 200 mg LPSD/kg) from E. coli (Sigma) in a total volume of 0.2 ml nonpyrogenic saline."}, "[3]": {"tested_on": "liver-derived macrophages", "test": "Liver-derived macrophage cell counts in liver sections after i.p. LPS", "type": "in vivo, mouse", "experimental": "Liver tissue derived from cIAP2^−/− (upper panels) and cIAP2^+/+ mice (lower panels) pre-treated with LPS (35 mg/kg) for 2 hours (a) or 6 hours (b). cell counts (n=5, average of 3 sections (average of 5 fields per section) per mouse, P<0.01) are shown within each anti-F4/80 FITC conjugated antibody stained panel along with the standard deviation.\nTo determine the apoptotic sensitivity of cIAP2^−/− macrophages within an LPS-induced pro-inflammatory environment, the peritoneal macrophage cell numbers before and during an endotoxin-elicited response were assessed by trypan blue exclusion, Diff Quik™ staining kit and flow cytometry (using the macrophage marker PE conjugated α-F4/80 antibody). […] However, total lymphocyte cell count numbers (B and T cells) were comparatively unaffected in both animal types (FIG. 5D). In addition, at 5 hours post LPS injection both the peritoneal and splenic macrophages from cIAP2^−/− mice stained ˜100% positive for Annexin V (Table 5). Therefore, peritoneal and splenic macrophages from cIAP2^−/− mice undergoing LPS-induced endotoxic shock were highly sensitive to apoptotic stimuli compared to control littermates, in vivo. Liver-derived macrophages are key mediators of LPS-induced endotoxic shock (7, 12). Therefore, to further investigate the survival status of macrophages within LPS treated cIAP2^−/− mice we examined cell count levels of liver-derived macrophages within liver sections. Macrophage cell count numbers within both cIAP2^−/− and control mice were similar at 2 hours post-IP LPS treatment (FIG. 6A), 235+/−35 and 271+/−29, respectively (n=5, average of 3 sections (average of 5 fields per section) per mouse, P<0.01). However, at the 6 hour time point (FIG. 6B), there was a precipitous drop of liver-derived macrophages of the cIAP2^−/− mice, 21+/−12 versus that of the littermates, 148+/−19 (n=5, average of 3 sections (average of 5 fields per section) per mouse, P<0.01). Therefore, like peritoneal and splenic macrophages, the liver-derived macrophages from cIAP2^−/− are highly sensitive to LPS in vivo."}, "[4]": {"conditions": "wild type peritoneal macrophages, LPS 0.1 ng/ml to 10 mg/ml, 18 hours"}}, "note": "Read-outs that look alike come from different tables or passages of the source.", "data": [{"substance": "lipopolysaccharide [LPS]", "values": [{"measurement": "ciap2 mRNA upregulation above untreated controls", "setting": "[1]; 100 ng/1 ml LPS, within 1 hour, maintained for 24 hours", "value": "> 20", "unit": "fold"}, {"measurement": "increase of ciap2 message above untreated controls", "setting": "[1]; peritoneal-derived macrophages, in less than one hour", "value": 2, "unit": "o"}, {"measurement": "Xiap and ciap1 message levels", "setting": "[1]; [4]", "value": "remained relatively unchanged"}, {"measurement": "ciap2 mRNA level increase above untreated controls", "setting": "[1]; [4]", "value": "up to 30 fold"}, {"measurement": "B cell proliferation in response to LPS", "setting": "splenic B cells", "value": "proliferated normally"}, {"measurement": "Survival", "setting": "[2]; all littermate controls, LPS dose of 60 mg/kg and above", "value": "did not survive past the first day"}, {"measurement": "Survival time", "setting": "[2]; cIAP2−/− mice, LPS dose of 200 mg LPS/kg", "value": "2 to 7", "unit": "days"}, {"measurement": "LD100", "setting": "[2]; cIAP2−/− mice", "value": 100, "unit": "mg LPS/kg"}, {"measurement": "Time within which all died", "setting": "[2]; control littermates, 40 mg LPS/kg", "value": "≤ 24", "unit": "h"}, {"measurement": "LD100", "setting": "[2]; control littermates", "value": 35, "unit": "mg LPS/kg"}, {"measurement": "LD100 of cIAP2−/− mice compared to that of control littermates", "setting": "[2]; i.p. LPS", "value": "approximately 3 ×"}, {"measurement": "Liver macrophage cell count", "setting": "[3]; cIAP2−/− mice, 2 hours post-IP LPS (35 mg/kg)", "value": "235+/−35"}, {"measurement": "Liver macrophage cell count", "setting": "[3]; cIAP2−/− mice, 6 hour time point post LPS (35 mg/kg)", "value": "21+/−12"}, {"measurement": "Liver macrophage cell count", "setting": "[3]; control mice, 2 hours post-IP LPS (35 mg/kg)", "value": "271+/−29"}, {"measurement": "Liver macrophage cell count", "setting": "[3]; littermates, 6 hour time point post LPS (35 mg/kg)", "value": "148+/−19"}]}]}
